Measured values taken from ChEMBL document CHEMBL6078687 (J Med Chem, 2024).

How the values were obtained:
[1] = Metabolic stability in human plasma assessed as half life at 2 uM incubated upto 120 mins by LC-MS/MS analysis; type: ADME, cell-free
[2] = Tmax in Sprague-Dawley rat at 20 mg/kg, po measured for 15 to 1440 mins by LC-MS/MS analysis; type: ADME, organism-based; settings: in vivo, time 15-1440 min
[3] = Half life in Sprague-Dawley rat at 20 mg/kg, po measured for 15 to 1440 mins by LC-MS/MS analysis; type: ADME, organism-based; settings: in vivo, time 15-1440 min
in vivo [4] = settings: Sprague-Dawley, rat, po, 20 mg/kg
[5] = Acute toxicity in Kunming mouse assessed as signs of sedation at 1000 mg/kg, IG measured for 1 week; type: organism-based; settings: in vivo, po, 168 h, time 1 weeks
[6] = Apparent volume of distribution in Sprague-Dawley rat at 2 mg/kg, iv measured for 15 to 1440 mins by LC-MS/MS analysis; type: ADME, organism-based; settings: in vivo, time 15-1440 min, read-out: Vz
[7] = MRT (0 to t) in Sprague-Dawley rat at 2 mg/kg, iv measured for 15 to 1440 mins by LC-MS/MS analysis; type: ADME, organism-based; settings: in vivo, time 15-1440 min
in vivo [8] = settings: Sprague-Dawley, rat, po, 20 mg/kg; remark: listed apart in the source
[9] = Cytotoxicity against MDCK cells incubated for 48 hrs by MTT assay; type: toxicity, cell-based, Canis lupus familiaris; settings: dog
Influenza A virus [10] = test: microbe, parasite or virus in culture; settings: A/PR/8/34 H1N1, MDCK, 48 h
Influenza A virus [11] = test: microbe, parasite or virus in culture; settings: A/Goose/Jiangsu/1306/2014 H5N8, CEF, 48 h
[12] = Acute toxicity in Kunming mouse assessed as increase in body weight at 1000 mg/kg, IG measured for 1 week; type: organism-based; settings: in vivo, po, 168 h, time 1 weeks
[13] = Acute toxicity in Kunming mouse assessed as animal mortality at 1000 mg/kg, IG measured for 1 week; type: organism-based; settings: in vivo, po, 168 h, time 1 weeks
in vivo [14] = settings: Sprague-Dawley, rat, iv, 2 mg/kg
[15] = Tmax in Sprague-Dawley rat at 2 mg/kg, iv measured for 15 to 1440 mins by LC-MS/MS analysis; type: ADME, organism-based; settings: in vivo, time 15-1440 min
[16] = MRT (0 to t) in Sprague-Dawley rat at 20 mg/kg, po measured for 15 to 1440 mins by LC-MS/MS analysis; type: ADME, organism-based; settings: in vivo, time 15-1440 min
[17] = Cmax in Sprague-Dawley rat at 2 mg/kg, iv measured for 15 to 1440 mins by LC-MS/MS analysis; type: ADME, organism-based; settings: in vivo, time 15-1440 min
in vivo [18] = settings: Sprague-Dawley, rat, iv, 2 mg/kg; remark: listed apart in the source
[19] = Acute toxicity in Kunming mouse assessed as drug tolerance at 1000 mg/kg, IG measured for 1 week; type: organism-based; settings: in vivo, po, 168 h, time 1 weeks
Influenza A virus [20] = test: microbe, parasite or virus in culture; settings: A/Goose/Guangdong/SH7/2013 H5N1, CEF, 48 h
[21] = MRT (0 to infinity) in Sprague-Dawley rat at 20 mg/kg, po measured for 15 to 1440 mins by LC-MS/MS analysis; type: ADME, organism-based; settings: in vivo, time 15-1440 min
[22] = Acute toxicity in Kunming mouse assessed as signs of disheveled fur at 1000 mg/kg, IG measured for 1 week; type: organism-based; settings: in vivo, po, 168 h, time 1 weeks
in vitro [23] = settings: human, liver microsomes
[24] = Half life in Sprague-Dawley rat at 2 mg/kg, iv measured for 15 to 1440 mins by LC-MS/MS analysis; type: ADME, organism-based; settings: in vivo, time 15-1440 min
[25] = Metabolic stability in human plasma assessed as compound remaining at 2 uM incubated upto 120 mins by LC-MS/MS analysis; type: ADME, cell-free; settings: read-out: Stability
[26] = Clearance in Sprague-Dawley rat at 2 mg/kg, iv measured for 15 to 1440 mins by LC-MS/MS analysis; type: ADME, organism-based; settings: in vivo, time 15-1440 min
[27] = Acute toxicity in Kunming mouse assessed as signs of convulsion movements at 1000 mg/kg, IG measured for 1 week; type: organism-based; settings: in vivo, po, 168 h, time 1 weeks
[28] = Metabolic stability in human liver microsomes assessed as compound remaining incubated for 60 mins by LC-MS/MS analysis; type: ADME, Microsome; settings: 1 h
[29] = MRT (0 to infinity) in Sprague-Dawley rat at 2 mg/kg, iv measured for 15 to 1440 mins by LC-MS/MS analysis; type: ADME, organism-based; settings: in vivo, time 15-1440 min
in vitro [30] = settings: human, liver microsomes; remark: listed apart in the source
[31] = Inhibition of neuraminidase in Influenza A virus A/Babol/36/2005 H3N2 using MUNANA as substrate incubated for 40 mins by […] based assay
[32] = Acute toxicity in Kunming mouse assessed as signs of appetite loss at 1000 mg/kg, IG measured for 1 week; type: organism-based; settings: in vivo, po, 168 h, time 1 weeks
[33] = Cmax in Sprague-Dawley rat at 20 mg/kg, po measured for 15 to 1440 mins by LC-MS/MS analysis; type: ADME, organism-based; settings: in vivo, time 15-1440 min
[34] = Oral bioavailability in Sprague-Dawley rat at 20 mg/kg measured for 15 to 1440 mins by LC-MS/MS analysis; type: ADME, organism-based; settings: in vivo, time 15-1440 min
[35] = Cytotoxicity against CEF cells incubated for 48 hrs by CCK8 assay; type: toxicity, cell-based, Gallus gallus; settings: chicken
[36] = Inhibition of neuraminidase in Influenza A virus A/Goose/Guangdong/SH7/2013 H5N1 using MUNANA as substrate incubated for 40 mins by […] based assay
Influenza A virus [37] = test: Antiviral activity against Influenza A virus A/WSN/67/05 H3N2 infected in MDCK cells assessed as inhibition of plaque formation measured after 2 days; settings: A/WSN/67/05 H3N2, MDCK, 48 h

## CCC(CC)O[C@@H]1C=C(C(=O)O)C[C@H](NCc2ccc(OCc3cccc(B(O)O)c3)cc2C)[C@H]1NC(C)=O
[1]
  half-life at 2 µM: > 289 min
[2]
  Tmax: 1320 min
[3]
  half-life: 78.6 min
In vivo [4]
  AUC(0-t): 12.7 ng·h/mL
[5]
  Activity: Non-toxic
[6]
  Vd: 0.511 L/kg
[7]
  MRT last: 7.8 min
In vivo [8]
  AUC(0-inf): 20.3 ng·h/mL
[9]
  EC50 at 48 h: > 250000 nM
Influenza A virus [10]
  EC50: 8 nM
Influenza A virus [11]
  EC50: 1270 nM
[12]
  Activity: Toxic
[13]
  Activity: Non-toxic
In vivo [14]
  AUC(0-t): 1370 ng·h/mL
[15]
  Tmax: 4.98 min
[16]
  MRT last: 48.6 min
[17]
  Cmax: 4850 ng/mL
In vivo [18]
  AUC(0-inf): 1380 ng·h/mL
[19]
  Activity: Non-toxic
Influenza A virus [20]
  EC50: 1290 nM
[21]
  MRT inf: 117 min
[22]
  Activity: Non-toxic
In vitro [23]
  microsomal CLint at 2 h: 11.2 µL/min/mg
[24]
  half-life: 15 min
[25]
  remaining at 2 h, 2 µM: 99.3%
[26]
  clearance: 24.8 mL/min/kg
[27]
  Activity: Non-toxic
[28]
  Stability: 112.2%
[29]
  MRT inf: 7.8 min
In vitro [30]
  CLint scaled at 2 h: 10.1 mL/min/kg
[31]
  IC50: 470 nM
[32]
  Activity: Non-toxic
[33]
  Cmax: 10.4 ng/mL
[34]
  bioavailability: 0.15%
[35]
  CC50 at 48 h: > 200000 nM
[36]
  IC50: 90 nM
Influenza A virus [37]
  EC50: 67500 nM

## CCC(CC)O[C@@H]1C=C(C(=O)O)C[C@H](NCc2ccc(OCc3cccc(B(O)O)c3)cc2Cl)[C@H]1NC(C)=O
[1]
  half-life at 2 µM: > 289 min
[2]
  Tmax: 15 min
[3]
  half-life: 41.4 min
In vivo [4]
  AUC(0-t): 47 ng·h/mL
[5]
  Activity: Non-toxic
[6]
  Vd: 1.12 L/kg
[7]
  MRT last: 9.6 min
In vivo [8]
  AUC(0-inf): 48.8 ng·h/mL
[9]
  EC50 at 48 h: > 250000 nM
Influenza A virus [10]
  EC50: 8 nM
Influenza A virus [11]
  EC50: 3260 nM
[12]
  Activity: Toxic
[13]
  Activity: Non-toxic
In vivo [14]
  AUC(0-t): 747 ng·h/mL
[15]
  Tmax: 4.98 min
[16]
  MRT last: 46.8 min
[17]
  Cmax: 2520 ng/mL
In vivo [18]
  AUC(0-inf): 749 ng·h/mL
[19]
  Activity: Non-toxic
Influenza A virus [20]
  EC50: 5410 nM
[21]
  MRT inf: 54.6 min
[22]
  Activity: Non-toxic
In vitro [23]
  microsomal CLint at 2 h: 13.6 µL/min/mg
[24]
  half-life: 16.8 min
[25]
  remaining at 2 h, 2 µM: 104%
[26]
  clearance: 45.5 mL/min/kg
[27]
  Activity: Non-toxic
[28]
  Stability: 98.6%
[29]
  MRT inf: 10.2 min
In vitro [30]
  CLint scaled at 2 h: 12.2 mL/min/kg
[31]
  IC50: 260 nM
[32]
  Activity: Non-toxic
[33]
  Cmax: 57.5 ng/mL
[34]
  bioavailability: 0.65%
[35]
  CC50 at 48 h: > 200000 nM
[36]
  IC50: 17 nM
Influenza A virus [37]
  EC50: > 100000 nM
